For 41 molecules, TGI and GI50 results are on record in PubChem BioAssay (NCI).

What all share (assay): growth of human tumour cells (NCI), 48 h
In assay [1] the test system is SNB-78 CNS.
The test system of assay [2] is M19-MEL melanoma.
Assay [3] concerns LXFL 529 NSCLC.
The test system of assay [4] is MDA-N.
Assay [5] concerns DMS 273 small cell lung.
Assay [6] deals with KM20L2 colon.
In assay [7] the test system is RXF-631 renal.

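Growth conditions: 96-well plates. Treatment: test compound, 48 hours, 5 concentrations. Analysis: linear interpolation between bracketing concentrations; unreached endpoints set to highest concentration. Here, GI50 denotes the concentration required for 50% inhibition of growth. TGI marks complete inhibition of growth.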

As for `O=C1CCC(c2ccccc2)=NN1c1nc2ccccc2s1`, the TGI in assay [1], in assay [2], in assay [3], in assay [4] and in assay [5] was above 100 µM in each case.

Consider `COc1ccc(/C=C/C(=O)c2c(-c3ccccc3)nn(C)c(=O)c2N2CC2C)cc1` (configuration not stated), for which the TGI is 63.1 µM in assay [1]; above 100 µM in assay [2]; 93.2 µM in assay [3]; 68.5 µM in assay [5]; 80 µM in assay [6].

With `O=P(CN1CCOCC1)(c1ccccc1)c1ccccc1`, the TGI in assay [1], in assay [2], in assay [3], in assay [7] and in assay [5] was above 100 µM throughout.

For `CN(C)CCCN1c2ccccc2Sc2ccc(C(F)(F)F)cc21`, the TGI in assay [1] is 33.9 µM; in assay [2] it was 32.3 µM; in assay [3], above 100 µM; in assay [4], 26.3 µM; in assay [5] it was 29.4 µM; in assay [6], 23.7 µM.

With `CCCCCCCCCCCC/C=C\CC[C@@H](O)[C@H](O)CC[C@H](O)[C@@H]1CC[C@@H](CCCCCCCC2=C[C@H](C)OC2=O)O1`, in assay [4], the GI50 was 6.76 µM and the TGI amounted to 23.4 µM.

For the molecule `O=C(/C=C/c1ccccc1)c1ccc(Cl)cc1Cl`, the TGI in assay [1] is 49.3 µM; in assay [2] it was 44.5 µM; in assay [3], 31.1 µM; in assay [7] it was above 100 µM; in assay [5], 34 µM; in assay [6] it was 45.7 µM.

On to `C/C=C/C=C/c1cc2cc3c(c(O)c2c(=O)[nH]1)C1(CC3)C(O)=c2c(=O)c3c(=O)cc(OC)c(=O)c=3c(=O)c2=C1O` (configuration not stated), for which the TGI in assay [1] was above 56.7 µM; in assay [2] it was 13 µM; in assay [3] it was 4.56 µM; in assay [7], above 100 µM; in assay [4], 11.9 µM; in assay [5] it was 7.82 µM. Also, in assay [6], the TGI came out at 10.9 µM.

In turn, `O=[N+]([O-])c1cccc(/C=N/Nc2ccc3ccccc3n2)c1O` showed a TGI in assay [4] of 34.3 µM.

In the case of `FC(F)(F)c1ccccc1C1SCc2nc3ccccc3n21` (configuration not stated), the TGI in assay [1], in assay [2], in assay [3] and in assay [5] was above 100 µM throughout.

Regarding `Cc1cc(Cl)ccc1N=C1NC(=O)C(CC(=O)Nc2cccc(Cl)c2)S1` (configuration not stated), the TGI in assay [1], in assay [2], in assay [3], in assay [5] and in assay [6] was above 100 µM throughout.

The molecule `OCCCN=C1CCCCC1` displayed a TGI in assay [4] above 100 µM.

On to `N=C(N)c1ccc2oc3ccc(C(=N)N)cc3c(=O)c2c1`, for which the TGI in assay [4] is above 100 µM.

`COC1C(OC(=O)c2ccc(C)[nH]2)C(O)C(Oc2ccc3c(O)c(NC(=O)c4ccc(O)c(CC=C(C)C)c4)c(=O)oc3c2Cl)OC1(C)C` (configuration not stated) gave a TGI in assay [4] above 100 µM.

`Cc1cc(N(CCC#N)CCC#N)ccc1/C=C(\NC(=O)/C=C/c1ccccc1)C(=O)Nc1ccccc1Cl`: the TGI in assay [1], in assay [2], in assay [3], in assay [5] and in assay [6] was above 100 µM each time.

Take `COc1cc2c(oc(=O)c3c4occc4cc(OC)c23)c2cccc(O)c12`: the TGI in assay [1], in assay [2], in assay [3], in assay [5] and in assay [6] was above 100 µM each time.

In assay [4], `CC(C)(O)C1COC2=C1C(=O)c1ccccc1C2=O` (configuration not stated) gave a TGI of 33.3 µM.

In the case of `O=C(N/C(=C\c1ccc([N+](=O)[O-])cc1)c1nc2ccccc2s1)c1ccccc1`, the TGI is above 100 µM in assay [1]; 53.9 µM in assay [2]; 42.9 µM in assay [3]; above 100 µM in assay [5]; above 100 µM in assay [6].

Molecule `O=C(Nc1ccn(C2CC(O)C(COC(c3ccccc3)(c3ccccc3)c3ccccc3)O2)c(=O)n1)c1ccccc1` (configuration not stated) returned a TGI in assay [4] of 3.99 µM.

In the case of `CCOc1ccc(C2=NN(CC)C(=O)C(C3C(=O)N(c4ccccc4)N=C3C)C2)cc1` (configuration not stated), the TGI in assay [1], in assay [2], in assay [3], in assay [5] and in assay [6] was above 100 µM each time.

In the case of `Cc1cc(C)c2nc3c(c(C(O)C4CCCCN4)c2c1)CC/C3=C\c1ccc(Cl)cc1` (configuration not stated), the TGI in assay [4] was above 100 µM.

As for `O=c1[nH]c2cc(Cl)ccc2nc1/C(=N\Nc1ccccc1)C(O)c1ccc2c(c1)OCO2` (configuration not stated), the TGI in assay [4] is above 100 µM.

Turning to `CC1NOC(=O)C1N=Nc1cccc(Cl)c1` (configuration not stated), the TGI in assay [1] is above 100 µM; in assay [2], 91.7 µM; in assay [3], above 100 µM; in assay [5], above 100 µM; in assay [6], above 100 µM.

Turning to `COC(=O)C1=NC(=S)NC(c2ccccc2)C1c1nc2ccccc2o1` (configuration not stated), the TGI in assay [1], in assay [2], in assay [3] and in assay [6] was above 50 µM each time.

Turning to `CCOc1ccc(NC(=O)CC2SC(=Nc3ccc(C)cc3)NC2=O)cc1` (configuration not stated), the TGI in assay [1], in assay [2], in assay [3], in assay [7], in assay [5] and in assay [6] was above 100 µM each time.

For `CC(C)(C)N/N=C(/Cc1nc2c3c(ccc2[nH]c1=O)C(=O)c1ccccc1C3=O)C(=O)NC1=C(Cl)C(=O)c2ccccc2C1=O`, in assay [4], the TGI came to 28.3 µM.

`COC(=O)Cc1cc(=O)n2c3ccccc3n(C)c2c1C#N`: the TGI in assay [1], in assay [2], in assay [5] and in assay [6] was above 100 µM throughout.

Take `C=CCNC(=S)NNC(=O)c1c(C)nc2sccn12`: the TGI in assay [2], in assay [3], in assay [7], in assay [5] and in assay [6] was above 100 µM throughout.

In assay [4], `CC1(C)CC(O)CC(C)(C)N1O` showed a TGI above 100 µM.

On to `CCCCCCCCCCCCCCCCCc1nc(Cl)nc(Cl)c1Cl`, for which the TGI in assay [4] is above 100 µM.

`Cc1nc2c(C)ccc([N+](=O)[O-])c2c(NCCCN(C)C)c1C` yielded a TGI in assay [4] above 100 µM.

For the molecule `COc1cccc(/C=C2\N=C(c3ccccc3)OC2=O)c1`, the TGI in assay [4] is above 100 µM.

On to `O=[N+]([O-])c1ccccc1N=Nc1c(O)[nH]c2c(Cl)cccc12`, for which the TGI in assay [4] is above 100 µM.

Turning to `COC(=O)CC1(O)C(=O)OCc2c1cc1n(c2=O)Cc2c-1nc1ccccc1c2OC` (configuration not stated), the TGI in assay [1] was above 100 µM; in assay [2] it was above 100 µM; in assay [3], above 100 µM; in assay [7], above 100 µM; in assay [5], 3.35 µM; in assay [6], above 100 µM.

For the molecule `CC(=O)CCC1(c2ccccc2)OC(=O)C(C#N)=C1c1ccccc1` (configuration not stated), the TGI in assay [1], in assay [2], in assay [3], in assay [7], in assay [5] and in assay [6] was above 100 µM throughout.

Regarding `COC(=O)C(=O)C(C(=O)C(=O)Nc1ccc([N+](=O)[O-])cc1)c1nc2ccccc2[nH]c1=O` (configuration not stated), the TGI in assay [2], in assay [3], in assay [7], in assay [5] and in assay [6] was above 100 µM each time.

With `NNc1c(C(N)=O)c2c(N)ncnc2n1C1OC(CO)C(O)C1O` (configuration not stated), in assay [4], the TGI turned out to be 0.144 µM.

With `CCCC1C[C@H]2CCCCN2[C@H]2CCCN12` (some centres not stated), the TGI in assay [1], in assay [3], in assay [7], in assay [5] and in assay [6] was above 100 µM in each case.

Molecule `O=S(=O)(c1ccccc1)N1CCCC(c2ccccc2)CC1` (configuration not stated) registered a TGI in assay [4] above 100 µM.

`CC(C)c1ccc(O)c(Cc2cc(C(C)C)cc(Cc3cc(C(C)C)ccc3O)c2O)c1`: the TGI in assay [1] came to 4.54 µM; in assay [2] it was 2.99 µM; in assay [3] it was 2.81 µM; in assay [6] it was 5.55 µM.

With `COc1ccc(/C=C/C(=N\NC(=O)c2ccccc2)c2sc(Nc3ccc([N+](=O)[O-])cc3)nc2C)cc1OC`, the TGI in assay [1] was determined as 61.9 µM; in assay [2] it was 70.6 µM; in assay [3], 24.3 µM; in assay [5], 54.6 µM; in assay [6], 97.6 µM.

Turning to `CCOc1ccc2nc(NC(=O)C(=O)C3C(=O)C(CC4C(=O)c5ccccc5C4=O)C(=O)CC3(C)C)sc2c1` (configuration not stated), in assay [4], the TGI is above 100 µM.
